Row | melting point [°C] | Structure (SMILES)
1 | 223 | NS(=O)(=O)c1cccc(-c2noc(-c3cnn4ccc(-c5ccc(Cl)cc5)nc34)n2)c1 [Example 49, 3-{5-[5-(4-Chloro-phenyl)-pyrazolo[1,5-a]pyrimidin-3-yl]-[1,2,4]oxadiazol-3-yl}-benzenesulfonamide]
2 | 288 | NS(=O)(=O)c1ccc(-c2noc(-c3cnc4ccc(-c5ccc(C(F)(F)F)cc5)cn34)n2)cc1 [Example 50, 4-{5-[6-(4-Trifluoromethyl-phenyl)-imidazo[1,2-a]pyridin-3-yl]-[1,2,4]oxadiazol-3-yl}-benzenesulfonamide]
3 | 288 | NS(=O)(=O)c1cccc(-c2noc(-c3cnc4ccc(-c5ccc(C(F)(F)F)cc5)cn34)n2)c1 [Example 51, 3-{5-[6-(4-Trifluoromethyl-phenyl)-imidazo[1,2-a]pyridin-3-yl]-[1,2,4]oxadiazol-3-yl}-benzenesulfonamide]
4 | 251 | NS(=O)(=O)c1ccc(-c2noc(-c3cnn4ccc(-c5ccc(C(F)(F)F)cc5)nc34)n2)s1 [Example 52, 5-{5-[5-(4-Trifluoromethyl-phenyl)-pyrazolo[1,5-a]pyrimidin-3-yl]-[1,2,4]oxadiazol-3-yl}-thiophene-2-sulfonic acid amide]
5 | 270 | NS(=O)(=O)c1cccc(-c2noc(-c3cnn4ccc(-c5ccc(C(F)(F)F)cc5)nc34)n2)c1 [Example 53, 3-{5-[5-(4-Trifluoromethyl-phenyl)-pyrazolo[1,5-a]pyrimidin-3-yl]-[1,2,4]oxadiazol-3-yl}-benzenesulfonamide]
6 | 280 | NS(=O)(=O)c1ccc(-c2noc(-c3cnc4ccc(-c5ccc(C(F)(F)F)cc5)cn34)n2)s1 [Example 54, 5-{5-[6-(4-Trifluoromethyl-phenyl)-imidazo[1,2-a]pyridin-3-yl]-[1,2,4]oxadiazol-3-yl}-thiophene-2-sulfonic acid amide]
7 | 263 | NS(=O)(=O)c1ccc(-c2noc(-c3cnc4ccc(-c5ccc(Cl)cc5)cn34)n2)s1 [Example 55, 5-{5-[6-(4-Chloro-phenyl)-imidazo[1,2-a]pyridin-3-yl]-[1,2,4]oxadiazol-3-yl}-thiophene-2-sulfonic acid amide]
8 | 258 | Nc1ccc(-c2noc(-c3cnc4ccc(-c5ccc(C(F)(F)F)cc5)cn34)n2)cn1 [Example 56, 5-{5-[6-(4-Trifluoromethyl-phenyl)-imidazo[1,2-a]pyridin-3-yl]-[1,2,4]oxadiazol-3-yl}-pyridin-2-ylamine]
9 | 273 | Nc1ccc(-c2noc(-c3cnc4ccc(-c5ccc(Cl)cc5)cn34)n2)cn1 [Example 57, 5-{5-[6-(4-Chloro-phenyl)-imidazo[1,2-a]pyridin-3-yl]-[1,2,4]oxadiazol-3-yl}-pyridin-2-ylamine]
10 | 277 | Nc1cc(-c2noc(-c3cnn4c(C(F)(F)F)cc(-c5ccc(C(F)(F)F)cc5)nc34)n2)ccn1 [Example 58, 4-{5-[7-Trifluoromethyl-5-(4-trifluoromethyl-phenyl)-pyrazolo[1,5-a]pyrimidin-3-yl]-[1,2,4]oxadiazol-3-yl}-pyridin-2-ylamine]
11 | 250 | Nc1cc(-c2noc(-c3cnn4ccc(-c5ccc(C(F)(F)F)cc5)nc34)n2)ccn1 [Example 59, 4-{5-[5-(4-Trifluoromethyl-phenyl)-pyrazolo[1,5-a]pyrimidin-3-yl]-[1,2,4]oxadiazol-3-yl}-pyridin-2-ylamine]
12 | 264 | Cc1cc(-c2ccc(C(F)(F)F)cc2)cn2c(-c3nc(-c4ccnc(N)c4)no3)cnc12 [Example 60, 4-{5-[8-Methyl-6-(4-trifluoromethyl-phenyl)-imidazo[1,2-a]pyridin-3-yl]-[1,2,4]oxadiazol-3-yl}-pyridin-2-ylamine]
13 | 280 | Nc1cc(-c2noc(-c3cnc4ccc(-c5ccc(C(F)(F)F)cc5)cn34)n2)ccn1 [Example 61, 4-{5-[6-(4-Trifluoromethyl-phenyl)-imidazo[1,2-a]pyridin-3-yl]-[1,2,4]oxadiazol-3-yl}-pyridin-2-ylamine]
14 | 253 | Nc1ccc(-c2noc(-c3cnn4c(C(F)(F)F)cc(-c5ccc(Cl)cc5)nc34)n2)cn1 [Example 62, 5-{5-[5-(4-Chloro-phenyl)-7-trifluoromethyl-pyrazolo[1,5-a]pyrimidin-3-yl]-[1,2,4]oxadiazol-3-yl}-pyridin-2-ylamine]
15 | 254 | Nc1ccc(-c2noc(-c3cnn4c(C(F)F)cc(-c5ccc(Cl)cc5)nc34)n2)cn1 [Example 63, 5-{5-[5-(4-Chloro-phenyl)-7-difluoromethyl-pyrazolo[1,5-a]pyrimidin-3-yl]-[1,2,4]oxadiazol-3-yl}-pyridin-2-ylamine]
16 | 262 | Cc1cc(-c2cc(C(F)(F)F)n3ncc(-c4nc(-c5ccc(N)nc5)no4)c3n2)ccc1Cl [Example 64, 5-{5-[5-(4-Chloro-3-methyl-phenyl)-7-trifluoromethyl-pyrazolo[1,5-a]pyrimidin-3-yl]-[1,2,4]oxadiazol-3-yl}-pyridin-2-ylamine]

Row | melting point [°C] | Structure (SMILES)
17 | 231 | Cc1cc(-c2cc(C(F)F)n3ncc(-c4nc(-c5ccc(N)nc5)no4)c3n2)ccc1C(F)(F)F [Example 65, 5-{5-[7-Difluoromethyl-5-(3-methyl-4-trifluoromethyl-phenyl)-pyrazolo[1,5-a]pyrimidin-3-yl]-[1,2,4]oxadiazol-3-yl}-pyridin-2-ylamine]
18 | 279 | Nc1ccc(-c2noc(-c3cnn4c(C(F)F)cc(-c5ccc(Cl)c(Cl)c5)nc34)n2)cn1 [Example 66, 5-{5-[5-(3,4-Dichloro-phenyl)-7-difluoromethyl-pyrazolo[1,5-a]pyrimidin-3-yl]-[1,2,4]oxadiazol-3-yl}-pyridin-2-ylamine]
19 | 289 | Nc1ccc(-c2noc(-c3cnn4c(C(F)(F)F)cc(-c5ccc(Cl)c(Cl)c5)nc34)n2)cn1 [Example 67, 5-{5-[5-(3,4-Dichloro-phenyl)-7-trifluoromethyl-pyrazolo[1,5-a]pyrimidin-3-yl]-[1,2,4]oxadiazol-3-yl}-pyridin-2-ylamine]
20 | 250 | CCOc1cc(-c2cc(C(F)F)n3ncc(-c4nc(-c5ccc(N)nc5)no4)c3n2)ccc1C(F)(F)F [Example 68, 5-{5-[7-Difluoromethyl-5-(3-ethoxy-4-trifluoromethyl-phenyl)-pyrazolo[1,5-a]pyrimidin-3-yl]-[1,2,4]oxadiazol-3-yl}-pyridin-2-ylamine]
21 | 263 | CCOc1cc(-c2cc(C(F)(F)F)n3ncc(-c4nc(-c5ccc(N)nc5)no4)c3n2)ccc1C(F)(F)F [Example 69, 5-{5-[5-(3-Ethoxy-4-trifluoromethyl-phenyl)-7-trifluoromethyl-pyrazolo[1,5-a]pyrimidin-3-yl]-[1,2,4]oxadiazol-3-yl}-pyridin-2-ylamine]
22 | 284 | Nc1ccc(-c2noc(-c3cnn4c(C(F)(F)F)cc(-c5ccc(C(F)(F)F)c(OCC(F)(F)F)c5)nc34)n2)cn1 [Example 70, 5-(5-{5-[3-(2,2,2-Trifluoro-ethoxy)-4-trifluoromethyl-phenyl]-7-trifluoromethyl-pyrazolo[1,5-a]pyrimidin-3-yl}-[1,2,4]oxadiazol-3-yl)-pyridin-2-ylamine]
23 | 285 | Nc1ccc(-c2noc(-c3cnn4c(C(F)F)cc(-c5ccc(C(F)(F)F)c(OCC(F)(F)F)c5)nc34)n2)cn1 [Example 71, 5-(5-{7-Difluoromethyl-5-[3-(2,2,2-trifluoro-ethoxy)-4-trifluoromethyl-phenyl]-pyrazolo[1,5-a]pyrimidin-3-yl}-[1,2,4]oxadiazol-3-yl)-pyridin-2-ylamine]
24 | 252 | Nc1ccc(-c2noc(-c3cnn4c(C(F)F)cc(-c5ccc(C(F)(F)F)c(Cl)c5)nc34)n2)cn1 [Example 72, 5-{5-[5-(3-Chloro-4-trifluoromethyl-phenyl)-7-difluoromethyl-pyrazolo[1,5-a]pyrimidin-3-yl]-[1,2,4]oxadiazol-3-yl}-pyridin-2-ylamine]
25 | 234 | Nc1ccc(-c2noc(-c3cnn4c(C(F)(F)F)cc(-c5ccc(C(F)(F)F)c(Cl)c5)nc34)n2)cn1 [Example 73, 5-{5-[5-(3-Chloro-4-trifluoromethyl-phenyl)-7-trifluoromethyl-pyrazolo[1,5-a]pyrimidin-3-yl]-[1,2,4]oxadiazol-3-yl}-pyridin-2-ylamine]
26 | 242 | Nc1ccc(-c2noc(-c3cnn4c(C(F)F)cc(-c5ccc(C(F)(F)F)c(F)c5)nc34)n2)cn1 [Example 74, 5-{5-[7-Difluoromethyl-5-(3-fluoro-4-trifluoromethyl-phenyl)-pyrazolo[1,5-a]pyrimidin-3-yl]-[1,2,4]oxadiazol-3-yl}-pyridin-2-ylamine]
27 | 233 | Nc1ccc(-c2noc(-c3cnn4c(C(F)(F)F)cc(-c5ccc(C(F)(F)F)c(F)c5)nc34)n2)cn1 [Example 75, 5-{5-[5-(3-Fluoro-4-trifluoromethyl-phenyl)-7-trifluoromethyl-pyrazolo[1,5-a]pyrimidin-3-yl]-[1,2,4]oxadiazol-3-yl}-pyridin-2-ylamine]
28 | 262 | Nc1ccc(-c2noc(-c3cnn4c(C(F)(F)F)cc(-c5ccc(F)c(F)c5)nc34)n2)cn1 [Example 76, 5-{5-[5-(3,4-Difluoro-phenyl)-7-trifluoromethyl-pyrazolo[1,5-a]pyrimidin-3-yl]-[1,2,4]oxadiazol-3-yl}-pyridin-2-ylamine]
29 | 268 | Nc1ncc(-c2noc(-c3cnn4c(C(F)(F)F)cc(-c5ccc(F)c(F)c5)nc34)n2)cn1 [Example 78, 5-{5-[5-(3,4-Difluoro-phenyl)-7-trifluoromethyl-pyrazolo[1,5-a]pyrimidin-3-yl]-[1,2,4]oxadiazol-3-yl}-pyrimidin-2-ylamine]
30 | 270 | Nc1ncc(-c2noc(-c3cnn4c(C(F)(F)F)cc(-c5ccc(C(F)(F)F)c(F)c5)nc34)n2)cn1 [Example 79, 5-{5-[5-(3-Fluoro-4-trifluoromethyl-phenyl)-7-trifluoromethyl-pyrazolo[1,5-a]pyrimidin-3-yl]-[1,2,4]oxadiazol-3-yl}-pyrimidin-2-ylamine]
31 | 279 | Nc1ncc(-c2noc(-c3cnn4c(C(F)(F)F)cc(-c5ccc(C(F)(F)F)c(Cl)c5)nc34)n2)cn1 [Example 80, 5-{5-[5-(3-Chloro-4-trifluoromethyl-phenyl)-7-trifluoromethyl-pyrazolo[1,5-a]pyrimidin-3-yl]-[1,2,4]oxadiazol-3-yl}-pyrimidin-2-ylamine]

From US8349844B2, “Substituted pyrazolo [1,5-A] pyrimidines as metabotropic glutamate antagonists” (Hoffmann-La Roche Inc., priority 2005, dated 2013)
